Reference: patent publication US7956070B2, “Piperidines as chemokine modulators (CCR)” (AstraZeneca AB, priority 2004, dated 2011)
Like-named read-outs stand apart in the source and are kept apart here.

What was measured:
human H1 receptor = molecular target: T1, human H1 receptor (Homo sapiens, UniProt P35367); test: Histamine H1 receptor binding, competition displacement of [3H]-pyrilamine; details: 1 nM [3H]-pyrilamine, membranes from recombinant CHO-K1 cells expressing the human H1 receptor, 1 hour at room temperature; read-out: H1 pKi (converted)
T1 construct: purchased Euroscreen SA, Brussels, Belgium ES-390-M; host or cells: recombinant CHO-K1 cells (membranes)
T1 sequence (P35367 whole entry): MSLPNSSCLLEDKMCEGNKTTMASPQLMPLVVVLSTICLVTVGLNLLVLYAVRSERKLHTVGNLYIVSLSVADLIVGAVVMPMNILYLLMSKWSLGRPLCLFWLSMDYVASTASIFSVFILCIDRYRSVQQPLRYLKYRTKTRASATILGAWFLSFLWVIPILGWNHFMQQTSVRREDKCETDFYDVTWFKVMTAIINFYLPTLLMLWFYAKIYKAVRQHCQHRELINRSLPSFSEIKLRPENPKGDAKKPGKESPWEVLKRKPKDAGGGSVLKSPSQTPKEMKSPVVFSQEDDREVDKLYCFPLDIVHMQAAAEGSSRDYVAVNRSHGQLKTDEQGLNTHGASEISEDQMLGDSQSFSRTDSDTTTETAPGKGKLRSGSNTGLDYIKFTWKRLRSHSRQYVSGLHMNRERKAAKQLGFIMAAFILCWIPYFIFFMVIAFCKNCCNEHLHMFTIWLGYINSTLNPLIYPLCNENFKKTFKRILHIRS
Description: Histamine H1 receptor binding activity of compounds of the invention was assessed by competition displacement of 1 nM [3H]-pyrilamine (Amersham, Bucks, Product code TRK 608, specific activity 30 Ci/mmol) to 2 μg membranes prepared from recombinant CHO-K1 cells expressing the human H1 receptor (Euroscreen SA, Brussels, Belgium, product code ES-390-M) in assay buffer (50 mM Tris pH 7.4 containing 2 mM MgCl2, 250 mM sucrose and 100 mM NaCl) for 1 hour at room temperature.
The following compounds of the invention gave inhibition of [3H]pyrilimine binding: […]

[1] = pKa measurement (Sirius GLpKa); format: physicochemical
Description: The pKa of a compound of formula (I) is measured using one of the following methodologies.
The apparatus used consists of a Sirius GLpKa instrument with DPAS (Dip Probe Absorption Spectroscopy) attachment. Key elements of the apparatus are a Sirius pH electrode, stirrer, titrant dispensing tubes, a multi-tipped dispenser, motor driven dispensing syringes, fibre optic UV probe and diode array detector. In addition, solutions in PTFE containers of ionic strength adjusted (0.10 M KCl) distilled water, nominally 0.50 M HCl, nominally 0.50 M KOH and 80% v/v methanol:water are also housed within the instrument. The titration solutions are constantly purged with oxygen free nitrogen. The reservoir for the potassium hydroxide solution is further protected from atmospheric contamination by a soda-lime guard-tube. Samples are placed in titration vessels which in turn are placed in a movable autosampler tray (maximum capacity 48 samples). The electrode, stirrer, dispensing tubing/tips and DPAS probe are housed on a movable, automated z-tower unit, which, controlled by software, positions itself in the appropriate titration vessel when titrating. The Sirius GLpKa instrument is directly connected to a dedicated PC supporting software for assay setup and subsequent data analysis. Assays are set up using the GlpKaControl software and results are analysed using the pKaLOGP and pKaUV software on the PC. The software also allows determination of multiple pKas using complex curve fitting analyses.
Method B: Potentiometric Method
Two types of potentiometric titrations may be performed in order to determine a compound's pKa/pKas; a purely aqueous titration (recommended for fairly water soluble compounds) and a cosolvent titration, where variable amounts of methanol are added to the sample in addition to ionic strength adjusted water (recommended for compounds which are not soluble in water). For the latter, a value for the compound's pKa in pure ionic strength adjusted water can be estimated by the Yasuda-Shedlovsky procedure. This involves measuring the apparent pKa of the compound at three known weight percentages of methanol:water (transposed into reciprocals of the dielectric constants of the medium, 1/εr) and then extrapolating to 0 wt % methanol (1/εr=[…]).
The GLpKa instrument unit also houses two aqueous wash containers (containing distilled water), a waste beaker (to dispense extraneous solutions into) and a container holding pH 7.00 buffer solution for the electrode to be immersed in during periods between titrations. Each time a set of titrations is carried out, these solutions are replaced. Position 1 in the autosampler contains a titration vessel containing pH 7.00 buffer solution (changed for each titration set). For each titration set to be run, position 2 houses a titration vessel into which ionic strength adjusted water is dispensed (typically 15.00 mL). This in turn is adjusted to pH 1.80 with aqueous HCl and then titrated to pH 12.20 by gradual addition of aqueous KOH. This is referred to as a blank titration and is employed by the pKaLogP software in order to calibrate the pH electrode and to standardise the HCl solution, using the so-called four-plus parameter procedure. Periodically, (typically every 3 months, or when the titration solutions run low) the titration solutions are replaced and the KOH solution standardised against potassium hydrogen phthalate using a standardisation procedure within the GLpKaControl software. Between 1-2 mg of each sample must be accurately weighed out. Samples are placed in provided glass titration vessels. The weight of compound must be entered into the GLpKaControl software. […]

[2] = ionic strength adjusted (0.10 M KCl) water, Method B: potentiometric method, read-out: pKa (measured using Method B)

Compound	Ki (human H1 receptor)	pKa [1, 2]	pKa ([1]; method not stated, read-out: measured pKa)
Cc1[nH]nnc1C(=O)NC[C@@H](O)CN1CCC(Oc2ccc(Cl)c(Cl)c2)CC1 [Example 8, N-{(2R)-3-[4-(3,4-Dichlorophenoxy)piperidin-1-yl]-2-hydroxypropyl}-5-methyl-1H-1,2,3-triazole-4-carboxamide]	0.0158 µM	7.5	
N#Cc1cc(C(=O)NC[C@@H](O)CN2CCC(Oc3ccc(Cl)c(Cl)c3)CC2)c(C2CC2)[nH]c1=O [Example 16, 5-Cyano-2-cyclopropyl-N-[(2R)-3-[4-(3,4-dichlorophenoxy)-1-piperidinyl]-2-hydroxypropyl]-1,6-dihydro-6-oxo-3-pyridinecarboxamide]	0.0251 µM	3.8	
CS(=O)(=O)Nc1cc(C(F)(F)F)c(C(=O)NC[C@@H](O)CN2CCC(Oc3ccc(Cl)c(Cl)c3)CC2)cn1 [Example 18, N-{(2R)-3-[4-(3,4-Dichlorophenoxy)piperidin-1-yl]-2-hydroxypropyl}-6-[(methylsulfonyl)amino]-4-(trifluoromethyl)nicotinamide]	0.316 µM	5.3	
O=C(NC[C@@H](O)CN1CCC(Oc2ccc(Cl)c(Cl)c2)CC1)c1sc(=O)[nH]c1-c1ccc(F)cc1 [Example 25, N-{(2R)-3-[4-(3,4-Dichlorophenoxy)piperidin-1-yl]-2-hydroxypropyl}-4-(4-fluorophenyl)-2-oxo-2,3-dihydro-1,3-thiazole-5-carboxamide]	0.0158 µM	7.4	
Cc1c(OC2CCN(C[C@H](O)CNC(=O)c3ccc(Cl)c(C(=O)O)c3)CC2)ccc(Cl)c1Cl [Example 42, 2-Chloro-5-[({(2R)-3-[4-(3,4-dichloro-2-methylphenoxy)piperidin-1-yl]-2-hydroxypropyl}amino)carbonyl]benzoic acid]	0.126 µM		2.3
Cc1c(OC2CCN(C[C@H](O)CNC(=O)COc3cc(C(=O)O)ccc3Cl)CC2)ccc(Cl)c1Cl [Example 44, 4-Chloro-3-[2-({(2R)-3-[4-(3,4-dichloro-2-methylphenoxy)piperidin-1-yl]-2-hydroxypropyl}amino)-2-oxoethoxy]benzoic acid]	0.0126 µM		
Cc1c(OC2CCN(C[C@H](O)CNC(=O)c3ccc(Cl)c(OCC(=O)O)c3)CC2)ccc(Cl)c1Cl [Example 45, {2-Chloro-5-[({(2R)-3-[4-(3,4-dichloro-2-methylphenoxy)piperidin-1-yl]-2-hydroxypropyl}amino)carbonyl]phenoxy}acetic acid]	0.0631 µM		
